From ChEMBL document CHEMBL1128577, “Synthesis and biological evaluation of novel 2,6-diaminobenz[cd]indole inhibitors of thymidylate synthase using the protein structure as a guide” (J Med Chem, 1995)

Key:
Thymidylate synthase [1] = molecular target: Thymidylate synthase (Homo sapiens, UniProt P04818); experiment: Inhibitory effect against recombinant human thymidylate synthase
CCRF-CEM = experiment: Compound is screened for cell growth inhibition against CCRF-CEM cell line, a human lymphoblastic leukemia line of T-cell origin; format: functional, cell-based
GC3/MTK- = experiment: Compound is screened for cell growth inhibition against GC3/MTK-cell line, a human thymidine kinase deficient adenocarcinoma line; format: functional, cell-based
L1210 = experiment: Compound is screened for cell growth inhibition against L1210 murine leukemia tumor cell line; format: functional, cell-based; conditions: Mus musculus
Thymidylate synthase [2] = molecular target: Thymidylate synthase (Escherichia coli, UniProt C3SWJ7); experiment: Inhibitory effect against Escherichia coli thymidylate synthase
[3] = Compound is evaluated for thymidine shift. […]; format: functional

Sequence of Thymidylate synthase (Escherichia coli, UniProt C3SWJ7) (C3SWJ7 whole entry): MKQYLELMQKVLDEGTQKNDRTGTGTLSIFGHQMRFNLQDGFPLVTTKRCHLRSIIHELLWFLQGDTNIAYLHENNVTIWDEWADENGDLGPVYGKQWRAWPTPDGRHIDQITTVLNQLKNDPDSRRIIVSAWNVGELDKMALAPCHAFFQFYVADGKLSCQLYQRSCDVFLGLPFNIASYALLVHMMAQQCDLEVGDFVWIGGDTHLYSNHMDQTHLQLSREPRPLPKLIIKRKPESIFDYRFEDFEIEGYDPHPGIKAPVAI
Sequence of Thymidylate synthase (Homo sapiens, UniProt P04818) (P04818 whole entry): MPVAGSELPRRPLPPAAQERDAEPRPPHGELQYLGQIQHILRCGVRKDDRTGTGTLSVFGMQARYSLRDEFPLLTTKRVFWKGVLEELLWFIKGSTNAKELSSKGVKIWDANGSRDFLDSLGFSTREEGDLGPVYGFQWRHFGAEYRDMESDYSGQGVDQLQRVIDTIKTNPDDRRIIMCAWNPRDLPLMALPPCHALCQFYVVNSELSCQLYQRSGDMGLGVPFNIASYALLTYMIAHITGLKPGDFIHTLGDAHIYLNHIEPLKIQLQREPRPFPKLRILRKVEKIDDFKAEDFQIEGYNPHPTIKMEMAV

SMILES	Ki (Thymidylate synthase [1]) [nM]	IC50 (CCRF-CEM) [nM]	IC50 (L1210) [nM]	Ki (Thymidylate synthase [2]) [nM]	IC50 (GC3/MTK-) [nM]	Thymidine shift [3]
CNC1=Nc2ccc(N(C)Cc3ccnnc3)c3cccc1c23	310	9000	6900	–	26000	1.9
CNC1=Nc2ccc(N(C)Cc3ccnnc3)c3c(C)ccc1c23	30	3700	800	–	9900	2.6
Cc1cc(CN(C)c2ccc3c4c(ccc(C)c24)C(N)=N3)ccn1	4	450	170	–	600	4.1
CNC1=Nc2ccc(N(C)Cc3ccncc3)c3c(C)ccc1c23	14	1100	210	–	3600	4.1
CNC1=Nc2ccc(N(C)Cc3ccncc3)c3cccc1c23	270	5100	1900	–	23000	2.6
CN(Cc1ccnc(Sc2ccccc2)c1)c1ccc2c3c(cccc13)C(N)=N2	52	2000	660	–	11500	1.8
Cc1ccc2c3c(ccc(N(C)Cc4ccnnc4)c13)N=C2N	10	780	450	–	2100	12.1
Cc1ccc2c3c(ccc(N(C)Cc4ccncc4)c13)N=C2N	6	440	160	600	1100	2.3
CN(Cc1ccc(S(=O)(=O)N2CCOCC2)cc1)c1ccc2c3c(cccc13)C(=N)N2	–	–	–	–	–	6.7

The next lines start with results.

Ki (Thymidylate synthase [1]) [nM]	IC50 (CCRF-CEM) [nM]	IC50 (L1210) [nM]	Ki (Thymidylate synthase [2]) [nM]	SMILES	IC50 (GC3/MTK-) [nM]	Thymidine shift [3]
17	2400	95	6600	CN(Cc1ccncc1)c1ccc2c3c(cccc13)C(N)=N2	4800	4.9
25	3000	1000	–	CCc1cc(CN(C)c2ccc3c4c(cccc24)C(N)=N3)ccn1	6500	2.8
14	2300	1600	1800	Cc1cc(CN(C)c2ccc3c4c(cccc24)C(N)=N3)ccn1	7900	2.1
18	3000	1300	–	CN(Cc1ccnc(CO)c1)c1ccc2c3c(cccc13)C(N)=N2	11000	6.9
15	4000	900	18000	CN(Cc1ccnnc1)c1ccc2c3c(cccc13)C(N)=N2	5000	7.7
15	–	–	5400	CN(Cc1ccc(S(=O)(=O)N2CCOCC2)cc1)c1ccc2c3c(cccc13)C(N)=N2 [METESIND]	–	–
45	5900	2100	–	CN(Cc1ccnc(C(F)(F)F)c1)c1ccc2c3c(cccc13)C(N)=N2	12000	4.2
